In patent US8039464B2, “Muscarinic antagonists with PARP and SIR modulating activity as agents for inflammatory diseases” (ProteoSys AG, priority 2004, dated 2011):
Where two headings read alike, the source gives them in different places.

What was measured:
PARP-1 [1] = target: T1, PARP-1 (Homo sapiens, UniProt P09874); assay: PARP inhibition assay (R&D Systems, Cat. No. TA4669); type: biochemical; conditions: for IC50: R&D assay, recombinant monomeric PARP-1, read-out: IC50 PARP-1 inhibition
T1 construct: purchased R&D Systems TA4669
T1 sequence (P09874 whole entry): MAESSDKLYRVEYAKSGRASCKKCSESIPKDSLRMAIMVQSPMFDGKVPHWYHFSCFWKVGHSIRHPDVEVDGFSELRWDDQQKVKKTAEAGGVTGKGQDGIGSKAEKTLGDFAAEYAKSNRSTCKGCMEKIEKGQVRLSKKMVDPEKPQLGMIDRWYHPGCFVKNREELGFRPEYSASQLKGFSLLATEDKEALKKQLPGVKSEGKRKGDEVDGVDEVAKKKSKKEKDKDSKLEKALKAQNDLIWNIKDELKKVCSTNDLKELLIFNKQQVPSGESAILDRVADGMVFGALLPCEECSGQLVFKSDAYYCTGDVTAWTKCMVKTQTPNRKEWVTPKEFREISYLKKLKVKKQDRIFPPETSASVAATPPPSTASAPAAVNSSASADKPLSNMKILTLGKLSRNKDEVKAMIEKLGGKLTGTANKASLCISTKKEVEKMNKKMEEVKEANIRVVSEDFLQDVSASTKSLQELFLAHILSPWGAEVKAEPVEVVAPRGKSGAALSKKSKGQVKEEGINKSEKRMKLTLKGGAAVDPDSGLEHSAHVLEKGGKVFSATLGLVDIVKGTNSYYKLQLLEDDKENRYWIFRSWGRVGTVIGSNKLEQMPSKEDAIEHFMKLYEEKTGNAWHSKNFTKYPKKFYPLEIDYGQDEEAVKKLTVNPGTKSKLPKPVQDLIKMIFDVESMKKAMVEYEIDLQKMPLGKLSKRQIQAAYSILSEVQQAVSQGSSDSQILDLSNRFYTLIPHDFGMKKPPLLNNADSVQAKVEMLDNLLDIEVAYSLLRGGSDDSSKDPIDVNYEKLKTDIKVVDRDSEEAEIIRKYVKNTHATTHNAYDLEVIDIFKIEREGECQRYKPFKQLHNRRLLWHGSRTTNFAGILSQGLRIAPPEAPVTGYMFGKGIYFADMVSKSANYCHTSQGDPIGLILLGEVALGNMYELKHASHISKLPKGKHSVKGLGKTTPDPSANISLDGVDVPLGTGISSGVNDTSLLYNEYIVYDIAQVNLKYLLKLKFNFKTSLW
Source text: A PARP inhibition assay from R&D Systems was used (Cat. No. TA4669) according to instructions of the supplier.
Under cellular conditions PARP-1 poly-ADP-ribosylates a host of nuclear proteins, including topoisomerase 1, 14-3-3 g and PARP-1 itself. Thus under cellular conditions, the self-modification of PARP-1 and dimerization are regulating its activity, moreover there is a tight interplay with PARG (poly-ADP-ribosyl-glycohydroxylase).

[2] = system: undifferentiated V56 embryonic stem cells; assay: LPS challenge, cell survival by Trypan Blue; type: cell-based; conditions: LPS 100 ng/ml for 60 min
Procedure: (§1) Cell pellets were further investigated by Western blot staining with anti Cox-2 and anti iNOS antibodies of 1D polyacrylamide gels.
(§2) Cell survival was assessed by Trypan Blue staining.

[3] = system: neurally differentiated V56 embryonic stem cells; assay: LPS challenge, cell survival by Trypan Blue; type: cell-based; conditions: LPS 100 ng/ml for 60 min
Procedure: as §1, §2

3T3 fibroblasts = assay: LPS challenge, cell survival by Trypan Blue; type: cell-based; conditions: LPS 100 ng/ml for 60 min
Procedure: as §1, §2

A 549 cells = assay: LPS challenge, cell survival by Trypan Blue; type: cell-based; conditions: LPS 100 ng/ml for 60 min
Procedure: as §1, §2

[4] = system: D3 embryonic stem (ES) cells, neurons; assay: Cell culture model for chemical ischemia and neuroprotection (calcium imaging); type: cell-based, mice
Procedure: For all experiments, D3 embryonic stem (ES) cells derived from 129/sv mice [Okabe et al., 1996] were cultivated for 12 days, with passages on days 2, 4, 7 and 9 as described previously [Sommer et al., 2004]. Insult conditions: Cells (24-well plates) were pre-incubated with or without 20 nM EPO in fresh medium for 24 hours at 37° C. Cells were rinsed once with low K^+ solution (140 mM NaCl, 4.7 mM KCl, 1.2 mM KH2PO4, 2.5 mM CaCl2, 1.2 mM MgSO4, 11 mM glucose, 15 mM Hepes-NaOH, pH 7.35). Cells (either with or without EPO pre-incubation) were incubated for up to 45 min (37° C.) with either low K^+ solution or with glucose-free low K^+ solution supplemented with 1 mM KCN (chemical ischemia solution [Kume et al., 2002]). Vitality control to asses numbers of surviving neurons was performed by a brief stimulation with a low dose of glutamate (10 μM). Afterwards, cells were washed three times with ice cold phosphate buffered saline (PBS), and then proteins were harvested. Suspended cells were pelleted at 500×G, and lysed into 9M urea 4% CHAPS. The cell lysate was desalted with a NAP-10 column (Amersham Biosciences), preequilibrated with the same buffer, and protein content was determined.
Functional tests by calcium imaging were performed essentially as described [Sommer et al., 2004]. Briefly, cells were loaded with 2 μM of […] in DMEM for 45 min at 37° C. in the dark. Measurements of relative changes in [Ca^2+] were made on an inverted epifluorescence microscope (Olympus IX70 S1F2) with a Polychrom IV Monochromator (Xe-lamp, USHIO). Excitation wavelengths (λ1, λ2) and the emission wavelength were 340, 380 and 510 nm, respectively. Acquisition and analysis of data after appropriate stimulation were performed by using MetaFluor software (Universal Imaging Corporation). Image resolution was 168×129 pixels (binning 8×8, pixel size 6.8×6.8 μm). Only cells identified as neurons by morphological criteria and occasional immunostaining (not shown) and those whose calcium levels returned to the resting state after the first stimulation were taken into account. Controls included nominal zero calcium (negative) and 5 μM ionomycin (positive), 10 μM glutamate (positive) and depolarisation (55 mM K+) (positive). Pharmacological agents were applied by a multi-valve, single-output focal drug application device (ALA Scientific) with the perfusion system DAD-12. […] During each stimulation event 20 image pairs were acquired.

iNOS and Cox-2 = assay: Cox-2 and iNOS expression after LPS challenge (Western blot); type: cell-based; conditions: LPS 100 ng/ml for 60 min
Procedure: as §1, §2

[5] = Blood-brain-barrier passage: HPLC of plasma and CSF; conditions: rat, in vivo
Source text: J. Gastroenterol. 66, 35ff.; Homon et al., 1987, Therapeutic Drug Monitoring 9, 236ff.).

SIR-2 [6] = target: T2, SIR-2 (Mus musculus, UniProt Q923E4); assay: SIR2 activity assay (CycLex SIR2 Assay kit); type: biochemical, murine; conditions: control; read-out: IC50 SIR-2 inhibition
T2 construct: Using a raw extract from murine embryonic stem cells; host or cells: murine embryonic stem cells (raw extract)
T2 sequence (Q923E4 2-737 limits assumed): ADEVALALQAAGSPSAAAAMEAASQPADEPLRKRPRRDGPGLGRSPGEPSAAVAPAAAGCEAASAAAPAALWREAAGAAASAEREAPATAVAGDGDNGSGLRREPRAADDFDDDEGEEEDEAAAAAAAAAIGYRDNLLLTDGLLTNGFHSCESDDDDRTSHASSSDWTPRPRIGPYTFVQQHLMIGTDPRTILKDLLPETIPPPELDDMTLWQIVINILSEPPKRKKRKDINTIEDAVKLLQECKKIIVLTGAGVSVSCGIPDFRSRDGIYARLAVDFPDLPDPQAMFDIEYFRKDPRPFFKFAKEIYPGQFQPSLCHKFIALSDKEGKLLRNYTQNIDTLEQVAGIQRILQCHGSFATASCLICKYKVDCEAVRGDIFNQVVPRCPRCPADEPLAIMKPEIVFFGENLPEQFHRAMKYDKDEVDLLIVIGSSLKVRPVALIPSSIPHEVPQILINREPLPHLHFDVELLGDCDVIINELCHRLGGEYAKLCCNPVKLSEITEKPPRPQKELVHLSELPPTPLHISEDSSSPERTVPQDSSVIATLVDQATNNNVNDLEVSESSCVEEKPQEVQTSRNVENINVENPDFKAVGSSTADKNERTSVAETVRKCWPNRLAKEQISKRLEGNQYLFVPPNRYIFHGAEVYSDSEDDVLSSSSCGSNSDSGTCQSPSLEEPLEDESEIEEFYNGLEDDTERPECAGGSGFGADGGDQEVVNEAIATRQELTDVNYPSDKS
Source text: For measurements of SIR2 activities, the quantitative test kit for NAD-dependent histone deacetylase activity CycLex® SIR2 Assay kit (Cat# CY-1151) was used according to instructions of manufacturer (CycLex Co., Ltd. 1063-103 Ohara, Tera-Sawaoka Ina, Nagano 396-0002 Japan). All substances tested in the SIR assay were cross-checked for their influence on the lysyl-endopeptidase. For this control an already deacetylated substrate peptide was used in order to measure directly lysyl-endopeptidase activity.
For measurements of SIR2 activities, the quantitative test kit for NAD-dependent histone deacetylase activity CycLex® SIR2 Assay kit (Cat# CY-1151) was used according to instructions of manufacturer (CycLex Co., Ltd. 1063-103 Ohara, Tera-Sawaoka Ina, Nagano 396-0002 Japan).

SIR-2 [7] = target: T3, SIR-2 (Mus musculus, UniProt Q923E4); assay: Affinity enrichment with irreversible pirenzepine affinity tag; type: binding
T3 construct: endogenous in cells; host or cells: V56 / D3 embryonic stem cells, raw extract
T3 sequence (Q923E4 1-737): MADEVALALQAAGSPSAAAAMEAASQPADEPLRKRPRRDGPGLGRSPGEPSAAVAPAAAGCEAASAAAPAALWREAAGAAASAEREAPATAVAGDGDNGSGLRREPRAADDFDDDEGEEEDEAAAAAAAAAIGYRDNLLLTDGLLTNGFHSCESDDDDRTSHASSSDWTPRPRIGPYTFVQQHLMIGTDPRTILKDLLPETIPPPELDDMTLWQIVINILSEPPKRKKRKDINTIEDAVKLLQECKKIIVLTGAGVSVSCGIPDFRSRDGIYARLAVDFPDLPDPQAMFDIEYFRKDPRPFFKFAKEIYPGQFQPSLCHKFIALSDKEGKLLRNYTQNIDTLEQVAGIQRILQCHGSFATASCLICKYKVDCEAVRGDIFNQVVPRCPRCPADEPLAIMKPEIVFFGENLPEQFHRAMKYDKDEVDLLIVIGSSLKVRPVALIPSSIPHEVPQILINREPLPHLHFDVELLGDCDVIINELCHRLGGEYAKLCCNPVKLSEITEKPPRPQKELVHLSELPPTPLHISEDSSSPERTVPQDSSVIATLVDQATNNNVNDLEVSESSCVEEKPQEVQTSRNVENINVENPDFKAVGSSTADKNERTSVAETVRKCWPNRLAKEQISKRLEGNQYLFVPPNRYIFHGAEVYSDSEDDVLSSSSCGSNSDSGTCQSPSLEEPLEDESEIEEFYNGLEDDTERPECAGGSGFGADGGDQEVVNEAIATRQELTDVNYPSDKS
Source text: (§3) A reactive —SCN group is introduced which binds to lysines in or near the binding site of the compound. A biotinylated linker serves for enrichment of bound protein. The synthesis is described in detail co-pending US-application 60/588,354 and 60/620,323 which are herein incorporated by reference. In FIG. 1 a synthesis scheme is depcited. The final product, which was used as affinity reagent is thiocyanato 11-[2-(4-biocytinyl-piperazin-1-yl)-acetyl]-5,11-dihydro-benzo[e]pyrido[3,2-b][1,4]diazepin-6-one, (11).
(§4) The affinity reagent 11 was used to bind the target covalently from fractionations of crude cell extracts of D3 ES cells and other cell lines, subsequently the affinity purified material was analysed by 1D PAGE, immunostaining, and mass spectrometry.
For SIR-2 staining the following antibodies were used: primary Ab: A-SiR 2 (Upstate, biomol 07-131; Lot:22073); 1:5000 in 5% BSA/1×TBST; secondary Ab: A-Rabbit PE(A-0545) 1:1000 in 5% BSA/1×TBST: […]

PARP-1 [8] = assay: as above; type: binding, mice
Source text: as §3, §4
The subsequent fractionation, isolation and further analysis was performed according to published standard procedures (Sommer et al. 2004). A commercial anti-PARP antibody was used for staining Western blots. Mass spectrometry for independent identification of pirenzepine-tagged proteins was performed as described elsewhere recently (Vogt et al., 2003, Cahill et al., 2003).
A surplus of affinity tag was removed by NAP10 gel filtration. The reaction mixture was bound to streptavidin agarose. Elution occurred with elution buffer (2% SDS, 62.5 mM Tris-pH 6.8) for 10 min at room temperature and 10 min at 95° C. […]

PARP-1, sequence (P11103 215-1013 limits assumed): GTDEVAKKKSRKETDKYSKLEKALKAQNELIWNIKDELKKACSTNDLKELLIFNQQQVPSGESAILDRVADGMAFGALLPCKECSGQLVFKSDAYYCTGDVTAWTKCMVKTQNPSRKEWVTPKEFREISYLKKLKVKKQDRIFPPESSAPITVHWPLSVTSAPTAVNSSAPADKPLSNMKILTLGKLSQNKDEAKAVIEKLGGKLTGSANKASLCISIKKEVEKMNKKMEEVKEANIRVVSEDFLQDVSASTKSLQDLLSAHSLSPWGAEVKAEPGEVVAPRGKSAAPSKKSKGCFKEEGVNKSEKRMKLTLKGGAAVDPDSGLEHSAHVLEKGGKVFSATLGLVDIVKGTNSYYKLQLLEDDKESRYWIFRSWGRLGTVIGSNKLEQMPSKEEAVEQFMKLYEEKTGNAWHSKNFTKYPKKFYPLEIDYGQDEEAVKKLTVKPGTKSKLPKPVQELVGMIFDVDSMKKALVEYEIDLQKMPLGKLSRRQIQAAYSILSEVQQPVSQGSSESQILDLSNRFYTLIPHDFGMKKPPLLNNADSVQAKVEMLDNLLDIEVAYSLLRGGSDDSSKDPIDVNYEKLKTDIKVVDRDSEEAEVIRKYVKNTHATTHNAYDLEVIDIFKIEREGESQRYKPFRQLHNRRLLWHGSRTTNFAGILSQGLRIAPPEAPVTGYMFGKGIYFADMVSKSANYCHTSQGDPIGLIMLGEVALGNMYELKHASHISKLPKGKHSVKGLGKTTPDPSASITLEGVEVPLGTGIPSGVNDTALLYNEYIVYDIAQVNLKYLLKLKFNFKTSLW

With `CN1CCN(CC(=O)N2c3ccccc3C(=O)Nc3cccnc32)CC1` [Pirenzepine, 5,11-dihydro-11[(4-methyl-1-piperazinyl)-acetyl]-6H-pyrido-[2,3-b]-[1,4]benzodiazepine-6-one, reference compound] the “PARP-1 inhibition (in words)” value (PARP-1 [1]) was “rather weak PARP-1 inhibitor”, the IC50 (PARP-1 [1]) was 200 µM and the “protection from LPS challenge” value [2] was “protect”. The “protection from LPS challenge” value [3] was “protect”, the “protection from LPS challenge” value (3T3 fibroblasts) was “protect” and the “protection from LPS challenge” value (A 549 cells) was “protect”. For the same molecule, the “neuroprotective in vitro effect” value ([4]; 1 μM, chemical ischemia) was “prevents neuronal death”, the survival rate ([4]; after chemical ischemia, 1 μM Pirenzepine (FIG. 2b)) was 72.1±4.4% and the “neuroprotective effect under raft-disrupting conditions” value ([4]; β-methyl-cyclodextrin or filipin) was “does not occur”. For the same molecule, the “expression of inducible inflammatory markers iNOS and Cox-2” value (iNOS and Cox-2) was “decreased expression”.

In the case of `O=C1Nc2cccnc2N(C(=O)CN2CCNCC2)c2ccccc21` [dm-Pirenzepine, desmethyl-Pirenzepine], the “passage into the brain” value [5] is reported as “virtually no passage”.

`O=c1[nH]c2ccccc2c2ccccc12` [phenanthridone, reference compound] gave an IC50 (PARP-1 [1]) of 7 µM.

For `NC(=O)c1cccnc1` [nicotine amide, reference compound], the IC50 (SIR-2 [6]) was about 55 µM.

For “thiocyanato 11-[2-(4-biocytinyl-piperazin-1-yl)-acetyl]-5,11-dihydro-benzo[e]pyrido[3,2-b][1,4]diazepin-6-one [pirenzepine-affinity tag]”, the “binding to SIR-2” value (SIR-2 [7]) was “irreversibly binds”, the “binding to SIR-2” value (SIR-2 [7]; listed as affinity tag) was “interacts” and the “interaction with PARP-1” value (PARP-1 [8]) was “interacts”.
